Values joined by “and” are separate entries in the source; they are usually repeats but may differ in a detail not shown here. Equal values may be shown once.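 Method: 48-hour compound exposure of cells in 96-well plates, five concentrations, linear interpolation of endpoints. The concentration for 50% growth inhibition is given as GI50. TGI is the concentration that stops growth completely.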

One assay has as its system NCI-H226 lung. Nature of the assay: DTP human tumour cell line panel, 48 h.
Consider `COc1cc2[nH]c(-c3ccccc3)cc(=O)c2c(OC)c1OC`, for which the TGI (usually the concentration giving total growth inhibition) was > 100 µM.

For the compound `CCOP(=O)(OCC)OC1CC(n2cc(C)c(=O)n(C)c2=O)OC1CO[Si](C)(C)C(C)(C)C` (centres undefined), the TGI is > 100 µM.

`N#C/C(=C1\SC(N=Nc2ccc(Cl)cc2)C(=O)N1c1ccccc1)c1nc2ccccc2[nH]1` (centres undefined): the TGI came to 77.2 µM.

On to `CCOC(=O)c1c(SCCN2CCOCC2)n(-c2ccccc2)c(=S)n(-c2ccccc2)c1=O`, for which the TGI was > 100 µM.

For `COc1ccc(N2C(=O)C3c4[nH]c5ccccc5c4C4CCCCCCCCCC4C3C2=O)cc1` (centres undefined), the total growth inhibition concentration (TGI) is > 10 µM.

In the case of `COc1cc(C(O)c2ccc3c(c2)OCO3)cc(OC)c1OC` (centres undefined), the total growth inhibition concentration (TGI) is > 100 µM.

Consider `Cc1cc(C)nc(NS(=O)(=O)c2ccc(NC(=O)c3cccc4c(NNc5ccc(S(=O)(=O)N=C(N)N)cc5)c5ccccc5nc34)cc2)n1`, for which the concentration for total growth inhibition (TGI) is > 50 µM.

On to `CCOC(=O)c1sc2ncnc(N)c2c1C`, for which the TGI is > 100 µM.

With `C=CCN1C(=O)/C(=C/c2ccc(C)cc2)N=C1SC1OC(COC(C)=O)C(OC(C)=O)C(OC(C)=O)C1OC(C)=O` (centres undefined), the GI50 (usually the concentration giving 50% growth inhibition) was > 100 µM and 20.9 µM; the TGI is > 100 µM and 85.6 µM.

Take `N#Cc1c(-c2ccccc2)c2c([nH]c1=O)-c1cc([N+](=O)[O-])ccc1CCC2`: the TGI is 71.6 µM.

As for `O=[N+]([O-])c1cc(Cl)ccc1Sc1ccccc1`, the TGI was > 100 µM.

Take `Nc1ccc(-c2nn3c(COc4ccc(Cl)cc4)nnc3s2)cc1`: the GI50 was 7.19 µM and the TGI was > 100 µM.

Turning to `COP(=O)(OC)C(Nc1ccc(Cc2ccc(NC(c3ccco3)P(=O)(OC)OC)cc2)cc1)c1ccco1` (centres undefined), the total growth inhibition concentration (TGI) is > 100 µM.

The compound `C(=C\c1ccccc1)/COc1ccccc1C(N1CCOCC1)n1nc2ccccc2n1` (centres undefined) had a TGI of 28.7 µM.

`O=C(CC(=O)Nc1ccccc1)NNC(c1cc(N=Nc2ccc(Br)cc2)ccc1O)P(O)O` (centres undefined) returned a concentration for total growth inhibition (TGI) of 9.43 µM.

Regarding `c1ccc([P+](CCCCCCCC[P+](c2ccccc2)(c2ccccc2)c2ccccc2)(c2ccccc2)c2ccccc2)cc1`, the concentration for total growth inhibition (TGI) is > 100 µM.

In the case of `O=C1C(C(O)(C(F)(F)F)C(F)(F)F)CCC1C(O)(C(F)(F)F)C(F)(F)F` (centres undefined), the concentration for total growth inhibition (TGI) stood at 4.44 µM. That is a single-digit micromolar value.

In the case of `Cc1ccc2oc(=O)c(-c3ccccc3)nc2c1`, the concentration for total growth inhibition (TGI) was > 100 µM.

For `COc1ccc(-n2nc(C)c3c(Nc4ccc(NC(=O)Nc5ccc(Cl)c(C(F)(F)F)c5)cc4)ncnc32)cc1`, the GI50 is 2.21 µM and the TGI was found to be 6.08 µM.

As to `COc1ccc(NC(C)c2ccncc2)cc1` (centres undefined), the concentration for total growth inhibition (TGI) was > 100 µM.

The compound `Nc1ccccc1C(=O)C(Br)C(Br)c1ccc2c(c1)OCO2` (centres undefined) yielded a total growth inhibition concentration (TGI) of 52.2 µM.

As to `O=C1C=CC(=O)C(CNc2ccc(C(=O)OCc3ccccc3)cc2)=C1`, the TGI is 28 µM.

On to `C/C(=C\CO)CC/C=C(\C)CNc1ccc([N+](=O)[O-])cc1`, for which the TGI is > 100 µM.

The subject of the next assay is K-562 leukemia. Briefly: DTP human tumour cell line panel, 48 h.
With `COc1cc2[nH]c(-c3ccccc3)cc(=O)c2c(OC)c1OC`, the TGI is > 100 µM.

On to `CCOP(=O)(OCC)OC1CC(n2cc(C)c(=O)n(C)c2=O)OC1CO[Si](C)(C)C(C)(C)C` (centres undefined), for which the TGI was > 100 µM.

In the case of `N#C/C(=C1\SC(N=Nc2ccc(Cl)cc2)C(=O)N1c1ccccc1)c1nc2ccccc2[nH]1` (centres undefined), the concentration for total growth inhibition (TGI) stood at 41 µM.

As for `CCOC(=O)c1c(SCCN2CCOCC2)n(-c2ccccc2)c(=S)n(-c2ccccc2)c1=O`, the TGI is 38 µM.

Turning to `O=C(NN1C(=O)CSC1c1cccc(F)c1)c1ccncc1` (centres undefined), the total growth inhibition concentration (TGI) was > 100 µM.

For the compound `COc1ccc(N2C(=O)C3c4[nH]c5ccccc5c4C4CCCCCCCCCC4C3C2=O)cc1` (centres undefined), the concentration for total growth inhibition (TGI) is > 10 µM.

As to `COc1cc(C(O)c2ccc3c(c2)OCO3)cc(OC)c1OC` (centres undefined), the total growth inhibition concentration (TGI) is > 100 µM.

Consider `Cc1cc(C)nc(NS(=O)(=O)c2ccc(NC(=O)c3cccc4c(NNc5ccc(S(=O)(=O)N=C(N)N)cc5)c5ccccc5nc34)cc2)n1`, for which the TGI was > 50 µM.

As to `CCOC(=O)c1sc2ncnc(N)c2c1C`, the TGI was > 100 µM.

Turning to `C=CCN1C(=O)/C(=C/c2ccc(C)cc2)N=C1SC1OC(COC(C)=O)C(OC(C)=O)C(OC(C)=O)C1OC(C)=O` (centres undefined), the GI50 was > 73.9 µM and 29.9 µM; the concentration for total growth inhibition (TGI) is > 100 µM.

Consider `N#Cc1c(-c2ccccc2)c2c([nH]c1=O)-c1cc([N+](=O)[O-])ccc1CCC2`, for which the TGI is > 100 µM.

As to `O=[N+]([O-])c1cc(Cl)ccc1Sc1ccccc1`, the total growth inhibition concentration (TGI) was > 100 µM.

Take `Nc1ccc(-c2nn3c(COc4ccc(Cl)cc4)nnc3s2)cc1`: the TGI is > 100 µM.

Turning to `COP(=O)(OC)C(Nc1ccc(Cc2ccc(NC(c3ccco3)P(=O)(OC)OC)cc2)cc1)c1ccco1` (centres undefined), the TGI is > 100 µM.

Regarding `C(=C\c1ccccc1)/COc1ccccc1C(N1CCOCC1)n1nc2ccccc2n1` (centres undefined), the concentration for total growth inhibition (TGI) was determined as 4.26 µM. In other words, the single-digit micromolar range.

Take `O=C(CC(=O)Nc1ccccc1)NNC(c1cc(N=Nc2ccc(Br)cc2)ccc1O)P(O)O` (centres undefined): the concentration for total growth inhibition (TGI) is > 10 µM.

Turning to `c1ccc([P+](CCCCCCCC[P+](c2ccccc2)(c2ccccc2)c2ccccc2)(c2ccccc2)c2ccccc2)cc1`, the concentration for total growth inhibition (TGI) is > 100 µM.

With `c1ccc2[nH]c(CNc3ccc(C4C[Se]N=N4)cc3)nc2c1` (centres undefined), the TGI is > 100 µM.

As to `O=C1C(C(O)(C(F)(F)F)C(F)(F)F)CCC1C(O)(C(F)(F)F)C(F)(F)F` (centres undefined), the TGI was > 100 µM.

In the case of `C[C@H]1OC(=O)[C@@H]2N=NN(Cc3ccccc3)[C@H]12`, the TGI was > 100 µM.

For `Cc1ccc2oc(=O)c(-c3ccccc3)nc2c1`, the total growth inhibition concentration (TGI) is > 100 µM.

`COc1ccc(NC(C)c2ccncc2)cc1` (centres undefined): the TGI is > 100 µM.

`Nc1ccccc1C(=O)C(Br)C(Br)c1ccc2c(c1)OCO2` (centres undefined): the TGI was > 100 µM.

As for `O=C1C=CC(=O)C(CNc2ccc(C(=O)OCc3ccccc3)cc2)=C1`, the TGI was > 100 µM.

`C/C(=C\CO)CC/C=C(\C)CNc1ccc([N+](=O)[O-])cc1` gave a TGI of 66.5 µM.

The next assay has as its system CCRF-CEM leukemia. Briefly: DTP human tumour cell line panel, 48 h.
Turning to `COc1cc2[nH]c(-c3ccccc3)cc(=O)c2c(OC)c1OC`, the concentration for total growth inhibition (TGI) is > 100 µM.

As to `CCOP(=O)(OCC)OC1CC(n2cc(C)c(=O)n(C)c2=O)OC1CO[Si](C)(C)C(C)(C)C` (centres undefined), the TGI was > 100 µM.

`N#C/C(=C1\SC(N=Nc2ccc(Cl)cc2)C(=O)N1c1ccccc1)c1nc2ccccc2[nH]1` (centres undefined) displayed a TGI of 47.4 µM. In other words, the double-digit micromolar range.

In turn, `CCOC(=O)c1c(SCCN2CCOCC2)n(-c2ccccc2)c(=S)n(-c2ccccc2)c1=O` yielded a TGI of 99 µM.

Regarding `O=C(NN1C(=O)CSC1c1cccc(F)c1)c1ccncc1` (centres undefined), the total growth inhibition concentration (TGI) is > 100 µM.

Turning to `COc1ccc(N2C(=O)C3c4[nH]c5ccccc5c4C4CCCCCCCCCC4C3C2=O)cc1` (centres undefined), the TGI was > 10 µM.

Regarding `COc1cc(C(O)c2ccc3c(c2)OCO3)cc(OC)c1OC` (centres undefined), the TGI was > 100 µM.

Regarding `Cc1cc(C)nc(NS(=O)(=O)c2ccc(NC(=O)c3cccc4c(NNc5ccc(S(=O)(=O)N=C(N)N)cc5)c5ccccc5nc34)cc2)n1`, the TGI was > 50 µM.

For the compound `CCOC(=O)c1sc2ncnc(N)c2c1C`, the TGI was > 100 µM.

With `C=CCN1C(=O)/C(=C/c2ccc(C)cc2)N=C1SC1OC(COC(C)=O)C(OC(C)=O)C(OC(C)=O)C1OC(C)=O` (centres undefined), the GI50 was 12.4 µM and 2.25 µM.

In turn, `N#Cc1c(-c2ccccc2)c2c([nH]c1=O)-c1cc([N+](=O)[O-])ccc1CCC2` showed a total growth inhibition concentration (TGI) of 94.3 µM.

As to `O=[N+]([O-])c1cc(Cl)ccc1Sc1ccccc1`, the TGI is > 100 µM.

Source of the values: PubChem BioAssay (NCI).
